Test results: patent US20140050668A1, “VISUALIZATION OF LIPID METABOLISM” (UNIVERSITAETSKLINIKUM HAMBURG-EPPENDORF, priority 2011, published 2014)
Entries after “also recorded” stand apart in the source; their conditions may differ.

Legend:
LPL [1] = biological target: T1, LPL (Mus musculus, UniProt P11152); assay: MRI of SPIO-nanosome uptake after pre-injection of THL, heparin or chylomicrons; format: in vivo, mice; settings: for uptake of SPIO-nanosomes into BAT, T2*-weighted MRI: cold-exposed FVB mice, pre-injection 1 min before SPIO-nanosomes
T1 construct: from tissue; host or cells: living wild-type FVB mice (in vivo; endothelium of BAT, heart and other lipid-consuming tissues)
T1 sequence (P11152 28-474): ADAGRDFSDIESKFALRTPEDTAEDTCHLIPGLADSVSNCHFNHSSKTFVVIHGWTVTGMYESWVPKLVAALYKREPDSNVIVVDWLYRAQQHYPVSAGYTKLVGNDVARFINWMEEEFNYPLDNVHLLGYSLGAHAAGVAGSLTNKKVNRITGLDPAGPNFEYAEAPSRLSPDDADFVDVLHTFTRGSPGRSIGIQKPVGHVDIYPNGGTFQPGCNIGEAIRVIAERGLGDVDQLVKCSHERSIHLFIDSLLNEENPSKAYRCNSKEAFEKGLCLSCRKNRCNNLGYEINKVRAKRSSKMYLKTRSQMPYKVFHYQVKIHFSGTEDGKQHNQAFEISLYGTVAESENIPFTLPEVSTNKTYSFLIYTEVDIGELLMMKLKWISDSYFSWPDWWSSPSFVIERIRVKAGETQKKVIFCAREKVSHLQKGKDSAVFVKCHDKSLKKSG
Experimental: Animals and diets. All experimental procedures were performed with approval from the animal care committees responsible for the University Medical Center Hamburg-Eppendorf. Animals were housed at 22° C. with ad libitum access to standard laboratory chow diet. We used male and female age-matched (16-22 weeks) FVB wildtype mice which were fasted 24 h or 4 h prior to the experiment. Fasting (22° C.) and cold exposure (4° C.) was performed in single cages for 24 h unless indicated otherwise.
For manipulation of LPL function, THL (Roche, 12.5 mg ml^−1 DMSO) was diluted to 1.25 mg ml^−1 in 10% DMSO in PBS. Mice received 200 μL of either 0.25 mg THL, 50 U heparin (ratiopharm) or PBS (mock). After 1 min, SPIO-nanosomes were injected, and plasma clearance and organ uptake were determined by dynamic MRI.
In vivo imaging studies. MRI was performed as described before^14. Briefly, all static and dynamic MRI measurements were performed with a clinical 3 Tesla MR scanner (Philips Medical Systems, Netherlands) equipped with a custom-made small animal solenoid coil. The dynamic measurements were based on a gradient-echo sequence (Supplementary table 3). The applied sequence is highly sensitive to susceptibility effects caused by local magnetic field inhomogeneities caused by SPIO-TRL. DICOM data were processed with ImageJ (http://rsbweb.nih.gov/ij/). SPIO-nanosomes were injected via a tail vein catheter.

LPL [2] = biological target: T1, LPL; assay: Oral fat tolerance test in cold mice pre-treated with THL; format: in vivo; settings: cold FVB mice; i.p. pre-treatment; versus mock-treated cold mice (no increase)
Experimental: Turnover studies and organ distribution. For turnover studies, anesthetized mice were tail vein injected with 200 μl radiolabeled TRL. Lipoprotein turnover was determined from 10 μl plasma 0.5, 1, 2, 5 and 15 min after injection. After 15 min, blood was removed by cardiac puncture, the right atrium was opened, and the carcass was perfused through the left ventricle with PBS containing 50 U mL^1 heparin. Then, organs were harvested and weighed. For measurement of radioactivity, organs were solubilized in Solvable (PerkinElmer, Boston, USA, 0.1 mL per 10 mg organ), 200 μL were counted in scintillation fluid and TRL uptake was calculated as c.p.m. per mg organ. Oral fat tolerance tests were performed by gavage of 100 μL olive oil with [9,10-^3H(N)]-triolein (370 KBq per mouse). To measure lipoprotein production triton WR-1339 (Tyloxapol from Sigma; 0.5 mg per g body weight as 10% solution in PBS) was injected into the tail vein. Plasma was collected at indicated time points. For the measurement of hepatic production 1(3)-^3H glycerol (125 KBq per mouse) was injected prior to triton WR-1339. Lipids were extracted from plasma samples and ^3H-glycerol incorporated into triglycerides was measured as described above. […] Intestine-derived radioactivity in plasma was measured as described above. […] Blood was collected at indicated time points and plasma triglyceride levels were determined.

LPL [3] = biological target: T1, LPL; assay: Organ distribution of 59Fe-SPIO- and 3H-triolein-labeled TRL after pre-injection of THL or heparin; format: in vivo; settings: cold FVB mice; for uptake of 3H-triolein into BAT / uptake of 59Fe-SPIO into BAT: pre-injected 1 min before radiolabeled TRL i.v., organs 15 min after injection
Experimental: Turnover studies and organ distribution. For turnover studies, anesthetized mice were tail vein injected with 200 μl radiolabeled TRL. Lipoprotein turnover was determined from 10 μl plasma 0.5, 1, 2, 5 and 15 min after injection. After 15 min, blood was removed by cardiac puncture, the right atrium was opened, and the carcass was perfused through the left ventricle with PBS containing 50 U mL^1 heparin. Then, organs were harvested and weighed. For measurement of radioactivity, organs were solubilized in Solvable (PerkinElmer, Boston, USA, 0.1 mL per 10 mg organ), 200 μL were counted in scintillation fluid and TRL uptake was calculated as c.p.m. per mg organ. Oral fat tolerance tests were performed by gavage of 100 μL olive oil with [9,10-^3H(N)]-triolein (370 KBq per mouse). To measure lipoprotein production triton WR-1339 (Tyloxapol from Sigma; 0.5 mg per g body weight as 10% solution in PBS) was injected into the tail vein. Plasma was collected at indicated time points. For the measurement of hepatic production 1(3)-^3H glycerol (125 KBq per mouse) was injected prior to triton WR-1339. Lipids were extracted from plasma samples and ^3H-glycerol incorporated into triglycerides was measured as described above. For chylomicron production mice received ^3H-triolein in olive oil by gavage as described above directly after triton WR-1339 injection. Intestine-derived radioactivity in plasma was measured as described above. For manipulation of LPL function, THL (Roche, 12.5 mg ml^−1 DMSO) was diluted to 1.25 mg ml^−1 in 10% DMSO in PBS. Mice received 200 μL of either 0.25 mg THL, 50 U heparin (ratiopharm) or 10% DMSO in PBS (mock). After 1 min ^59Fe-SPIO- and ^3H-triolein-labeled TRL were injected and plasma clearance and organ uptake were determined as described above. For postprandial studies mice were i.p. injected with 0.25 mg THL or mock solution prior to gavage of 200 μL olive oil. Blood was collected at indicated time points and plasma triglyceride levels were determined.

BAT = assay: Intravital confocal imaging of fluorescent-labeled TRL in BAT; format: in vivo, mice
Experimental: In vivo imaging studies. MRI was performed as described before. Briefly, all static and dynamic MRI measurements were performed with a clinical 3 Tesla MR scanner (Philips Medical Systems, Netherlands) equipped with a custom-made small animal solenoid coil. The dynamic measurements were based on a gradient-echo sequence (Supplementary table 3). The applied sequence is highly sensitive to susceptibility effects caused by local magnetic field inhomogeneities caused by SPIO-TRL. DICOM data were processed with Image (http://rsbweb.nih.gov/ij/). For cryo electron microscopy, SPIO-TRL were intravenously injected into control or cold wild-type FVB mice. After 30 min mice were sacrificed, BAT biopsies were taken and processed for transmission electron microscopy (TEM) as described. Micrographs were obtained with a FBI Eagle 4k CCD camera and a Technal 20 TEM operated at 200 kV. For environmental scanning electron microscopy studies of BAT anaesthetized mice were perfused with PBS-Heparin as above and organs were fixed with 2.5% glutaraldehyde in PBS, washed, and postfixed for 30 min with 1% […] in PBS. For intravital microscopy interscapular BAT was dissected in anaesthetized mice and visualized by a confocal microscope equipped with a resonant scanner (Nikon AIR). QD-labeled TRL and fluorescent probes were injected via a tail vein catheter and 15 or 30 confocal images per second were recorded. The acquired data sets were aligned to reduce object movements due to mouse breathing and denoised with a Savitzky-Golay filter in Nikon NIS Elements AR 3.10. Labeling, animations and quicktime-export were done with Adobe After Effects CS4.

Question: What does the source list for `CCCCCCCCCCC[C@@H](C[C@@H]1OC(=O)[C@H]1CCCCCC)OC(=O)[C@H](CC(C)C)NC=O` [THL, Tetrahydrolipstatin]?
Answer: uptake of SPIO-nanosomes into the heart (myocard), T2*-weighted MRI (LPL [1]; 24 h fasted FVB mice, inhibitor injected 1 min before SPIO-nanosomes): not enhanced; also recorded: abolished; uptake of SPIO-nanosomes into BAT, T2*-weighted MRI (LPL [1]): not enhanced; also recorded: abolished; plasma triglycerides after lipid gavage (LPL [2]): significant postprandial triglyceride response; uptake of 3H-triolein into BAT (LPL [3]): abolished; uptake of 59Fe-SPIO into BAT (LPL [3]): abolished; uptake of TRL into the heart (LPL [3]; pre-injected before radiolabeled TRL): inhibited

Question: heparin was tested. Which “uptake of SPIO-nanosomes into BAT, T2*-weighted MRI” value (LPL [1]) did it give?
Answer: Its value is “blocked”.

Question: And the “uptake of 3H-triolein into BAT” value (LPL [3])?
Answer: Its value is “blocked”.

Question: What about the “uptake of 59Fe-SPIO into BAT” value (LPL [3]) of the same compound?
Answer: Its value is “blocked”.

Question: And the “fluorescent-labeled TRL initially bound to the vascular wall” value (BAT; heparin after initial TRL binding)?
Answer: Its value is “released”.

Question: And the “already internalized TRL particles” value (BAT; time-delayed heparin injection)?
Answer: Its value is “no influence”.

Question: And the “binding of a second bolus of TRL” value (BAT; time-delayed heparin injection)?
Answer: The value was “blocked”.
